Values joined by “and” are separate entries in the source; they are usually repeats but may differ in a detail not shown here. Equal entries are not always repeated.
Test system: 616215-338-R-J1-PDC complex spheroid viability
Assay: Anticancer human tumor 616215-338-R-J1-PDC patient-derived colon adenocarcinoma cell line growth inhibition [POLQ]
Conditions: for viability, T/C: stronger effect = lower value
Experimental: Multicellular complex tumor spheroid response to Polymerase (POL) inhibitors (novobiocin, ART-558, RP6685) in combination with a variety of drugs and investigational agents in selected tumor cell lines
The POL inhibitors (novobiocin, ART-558, and RP6685) were evaluated both individually and in combination with standard of care and investigational anticancer small molecules within a complex spheroid model of solid tumors. . Complex spheroids include a stromal component modeled by human endothelial cells (HUVEC) and fibroblasts modeled by human mesenchymal stem cells (MSCs). The concentration ranges selected for each drug and investigational agent were based upon clinically achievable concentrations if the clinical Cmax of the agent was known.
Compounds. The drugs and investigational agents: novobiocin (NSC847541), ART-558 (NSC835418), RP-6685 (NSC848927), peposertib (NSC802822), ceralasertib (NSC780249), elimusertib (NSC800525), camonsertib (NSC841442), AZD-1390 (NSC803789), olaparib (NSC753686), talazoparib (NSC767125), rucaparib (NSC756644), sotorasib (NSC818433), MRTX-1133 (NSC836407), SN-38 (NSC673596), topotecan (NSC609699), epotoside (NSC141540), doxorubicin (NSC123127), gemcitabine (NSC613327), 5-fluorouracil (NSC19893), paclitaxel (NSC125973), vemurafenib (NSC761431), MSA-2 (NSC828583), SN-011 (NSC837082), adavosertib (NSC754352), prexasertib (NSC758257), carboplatin (NSC241240) and oxaliplatin (NSC266046), were obtained from the National Cancer Institute (NCI) Developmental Therapeutics Program Chemical Repository (21). The FDA-approved anticancer drug set is available from the Developmental Therapeutics Program at https://dtp.cancer.gov/organization/dscb/obtaining/. […] The stock solutions were prepared in dimethyl sulfoxide (DMSO, Sigma-Aldrich, St. Louis, MO, cat. D2650), except for the platinum compounds which were prepared in saline (Quality Biological, Gaithersburg, MD, cat. 114-055-101), at 800-fold the tested concentration and stored at -70 degrees C prior to their use. All drugs and investigational agents were tested over a range starting from a high concentration at or near the clinical Cmax and decreasing in half-log increments. If the clinical Cmax for an agent had not been determined, the highest concentration tested was 10 microM, except for SN-38, which was tested at a high concentration of 1 microM.
Cell Culture. All cells were maintained in an incubator at 37 degrees C and 5% CO2 with 95% humidity. The PDC lines were cultured according to standard operating procedures established by the NCI PDMR (https://pdmr.cancer.gov). Table 3 of the manuscript, lists the cell lines along with the number of the three cell types plated to form the mct-spheroids and media for tumor cell growth. After thawing, all PDC lines, except 997537-175-T-J1-PDC and 415267-285-R-J2-PDC, were cultured in Matrigel-coated flasks prepared with a working solution of 1X Ham's F-12 nutrient mix, without supplementation (Thermo Fisher Scientific, cat. 11765054), 100 U/mL penicillin-streptomycin (Thermo Fisher Scientific, cat. 15140122), and 2.5% Matrigel (Corning Inc., Corning, NY, cat. 354248) for the first three passages. The two PDC lines 997537-175-T-J1-PDC and 415267-285-R-J2-PDC were cultured on uncoated flasks. The 857933-349-R-J2-PDC line was cultured in 6C/Colon 1B media containing advanced DMEM/F-12 (Thermo Fisher Scientific, cat. 12634028), 10 mM HEPES (Thermo Fisher Scientific, cat. 15630080), 1X GlutaMAX supplement (Thermo Fisher Scientific, cat. 35050061), 0.1 mg/mL primocin (InvivoGen, San Diego, CA, cat. ant-pm-2), 10% defined fetal bovine serum, heat inactivated (HyClone Laboratories Inc., Logan, UT, cat. SH30070.03HI), 50% L-WRN conditioned media (ATCC, cat. CRL-3276), 1.25 mM N-Acetyl-L-cysteine (Sigma-Aldrich, cat. A9165), 10 mM nicotinamide (Sigma-Aldrich, cat. N0636), 1X B-27 supplement (Thermo Fisher Scientific, cat. 17504044), 1X N-2 supplement (Thermo Fisher Scientific, cat. […]

[1] = curve of first compound, second compound 0.0316 µM
[2] = curve of first compound, second compound 0.1 µM
[3] = curve of first compound, second compound 0.316 µM
[4] = curve of first compound, second compound 1 µM
[5] = curve of first compound, second compound 3.16 µM
[6] = curve of first compound, second compound 10 µM
[7] = second compound 0.0316 µM, first compound 0.0316 µM
[8] = second compound 0.0316 µM, first compound 0.1 µM
[9] = second compound 0.0316 µM, first compound 0.316 µM
[10] = second compound 0.0316 µM, first compound 1 µM
[11] = second compound 0.0316 µM, first compound 3.16 µM
[12] = second compound 0.0316 µM, first compound 10 µM
[13] = second compound 0.1 µM, first compound 0.0316 µM
[14] = second compound 0.1 µM, first compound 0.1 µM
[15] = second compound 0.1 µM, first compound 0.316 µM
[16] = second compound 0.1 µM, first compound 1 µM
[17] = second compound 0.1 µM, first compound 3.16 µM
[18] = second compound 0.1 µM, first compound 10 µM
[19] = second compound 0.316 µM, first compound 0.0316 µM
[20] = second compound 0.316 µM, first compound 0.1 µM
[21] = second compound 0.316 µM, first compound 0.316 µM
[22] = second compound 0.316 µM, first compound 1 µM
[23] = second compound 0.316 µM, first compound 3.16 µM
[24] = second compound 0.316 µM, first compound 10 µM
[25] = second compound 1 µM, first compound 0.0316 µM
[26] = second compound 1 µM, first compound 0.1 µM
[27] = second compound 1 µM, first compound 0.316 µM
[28] = second compound 1 µM, first compound 1 µM
[29] = second compound 1 µM, first compound 3.16 µM
[30] = second compound 1 µM, first compound 10 µM
[31] = second compound 3.16 µM, first compound 0.0316 µM
[32] = second compound 3.16 µM, first compound 0.1 µM
[33] = second compound 3.16 µM, first compound 0.316 µM
[34] = second compound 3.16 µM, first compound 1 µM
[35] = second compound 3.16 µM, first compound 3.16 µM
[36] = second compound 3.16 µM, first compound 10 µM
[37] = second compound 10 µM, first compound 0.0316 µM
[38] = second compound 10 µM, first compound 0.1 µM
[39] = second compound 10 µM, first compound 0.316 µM
[40] = second compound 10 µM, first compound 1 µM
[41] = second compound 10 µM, first compound 3.16 µM
[42] = second compound 10 µM, first compound 10 µM
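Also: spheroids exposed to compounds for one week before readout.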
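For viability, T/C in this document: percent viability relative to DMSO vehicle wells taken as 100%.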

O=C(Nc1ccc(O)c(NS(=O)(=O)c2ccc(F)cc2)c1)c1ccc(-c2ccccc2)cc1
viability, T/C (compound 0.0316 µM): 104% and 110% and 106%
viability, T/C (compound 0.1 µM): 107% and 100% and 90.8%
viability, T/C (compound 0.316 µM): 107% and 108% and 104%
viability, T/C (compound 1 µM): 108% and 92.6% and 100%
viability, T/C (compound 3.16 µM): 102% and 106% and 114%
viability, T/C (compound 10 µM): 60.7% and 49.2% and 101%
IC50 (curve of compound): > 10 µM and 9.86 µM

O=C(Nc1ccc(O)c(NS(=O)(=O)c2ccc(F)cc2)c1)c1ccc(-c2ccccc2)cc1 + COC1C(OC(N)=O)C(O)C(Oc2ccc3c(O)c(NC(=O)c4ccc(O)c(CC=C(C)C)c4)c(=O)oc3c2C)OC1(C)C
IC50 [1]: > 10 µM
IC50 [2]: > 10 µM
IC50 [3]: > 10 µM
IC50 [4]: > 10 µM
IC50 [5]: > 10 µM
IC50 [6]: > 10 µM
viability, T/C [7]: 103%
viability, T/C [8]: 103%
viability, T/C [9]: 104%
viability, T/C [10]: 109%
viability, T/C [11]: 118%
viability, T/C [12]: 97.8%
viability, T/C [13]: 102%
viability, T/C [14]: 100%
viability, T/C [15]: 103%
viability, T/C [16]: 95.1%
viability, T/C [17]: 99.6%
viability, T/C [18]: 118%
viability, T/C [19]: 101%
viability, T/C [20]: 98.3%
viability, T/C [21]: 91.3%
viability, T/C [22]: 93.8%
viability, T/C [23]: 106%
viability, T/C [24]: 92.2%
viability, T/C [25]: 105%
viability, T/C [26]: 107%
viability, T/C [27]: 101%
viability, T/C [28]: 116%
viability, T/C [29]: 101%
viability, T/C [30]: 105%
viability, T/C [31]: 102%
viability, T/C [32]: 105%
viability, T/C [33]: 100%
viability, T/C [34]: 105%
viability, T/C [35]: 107%
viability, T/C [36]: 93.9%
viability, T/C [37]: 108%
viability, T/C [38]: 100%
viability, T/C [39]: 98.5%
viability, T/C [40]: 103%
viability, T/C [41]: 107%
viability, T/C [42]: 88.8%

C=CC(=O)N1CCN(c2nc(=O)n(-c3c(C)ccnc3C(C)C)c3nc(-c4c(O)cccc4F)c(F)cc23)C(C)C1 (stereo unspecified) + Nc1ccc(C#CCN(C(=O)Cc2ncc(C(F)(F)F)cc2C(F)(F)F)c2ccc(F)cc2)nn1
IC50 [1]: > 10 µM
IC50 [2]: > 10 µM
IC50 [3]: > 10 µM
IC50 [4]: > 10 µM
IC50 [5]: > 10 µM
IC50 [6]: > 10 µM
viability, T/C [7]: 115%
viability, T/C [8]: 99.3%
viability, T/C [9]: 96.9%
viability, T/C [10]: 99.6%
viability, T/C [11]: 89.2%
viability, T/C [12]: 66.8%
viability, T/C [13]: 103%
viability, T/C [14]: 101%
viability, T/C [15]: 98.3%
viability, T/C [16]: 90.6%
viability, T/C [17]: 85.5%
viability, T/C [18]: 63.5%
viability, T/C [19]: 95.2%
viability, T/C [20]: 96.7%
viability, T/C [21]: 95.2%
viability, T/C [22]: 91%
viability, T/C [23]: 78.8%
viability, T/C [24]: 62.2%
viability, T/C [25]: 96.3%
viability, T/C [26]: 95.2%
viability, T/C [27]: 96.6%
viability, T/C [28]: 94.6%
viability, T/C [29]: 84.4%
viability, T/C [30]: 67.3%
viability, T/C [31]: 92.6%
viability, T/C [32]: 89.2%
viability, T/C [33]: 97.7%
viability, T/C [34]: 93.8%
viability, T/C [35]: 85%
viability, T/C [36]: 67%
viability, T/C [37]: 88.2%
viability, T/C [38]: 94.4%
viability, T/C [39]: 95.2%
viability, T/C [40]: 82.9%
viability, T/C [41]: 87.7%
viability, T/C [42]: 65.4%
